The structures appear in SMILES notation.

Series [1] deals with cultured motor neurons. Kind of series: Protection of cultured motor neurons from growth factor withdrawal. In kind it is cell-based. On the procedure: Culture Motor neurons were prepared from embryonic day 15 (E15) rat spinal cords by a combination of metrizamide gradient centrifugation and immunopanning with the monoclonal antibody IgG192 (Chandler et al., J. Biol. Chem. 259:6882-6889, 1984) as previously described (Estevez et al., J Neurosci 18:923-931, 1998; Henderson C E, Bloch-Gallego E, Camu W (1995): Purification and culture of embryonic motorneurons. In Cohen J, Wilkin G (eds): Neural Cell Culture: A Practical Approach. Oxford, England: IRL Press, pp 69-81). Long-term cultures of motor neurons were performed as described by Pennica et al. (Pennica et al., Neuron 17:63-74, 1996). Briefly, motor neurons were plated at a density of 200 cells/cm2 on 35 mm dishes precoated with polyornithine-laminin in Neurobasal medium supplemented with B27 (Life Technologies, Grand Island, N.Y.), 2% horse serum, 0.5 mM L-glutamine, 25 μM 2-mercaptoethanol and 25 μM L-glutamate. Every 3-4 days ¾ of the culture medium was replaced by fresh medium lacking L-glutamate and containing sufficient quantities of BDNF or FeTCPP to supplement the 2 ml of medium in the dish. More than 94% of the cells were immunoreactive for the p75 low-affinity neurotrophic receptor (p75NTR) and Islet ½, which are markers for motor neurons. The experiments were repeated at least 2 times using the same lot of Neurobasal medium and B 27 supplement.
The number of motor neurons with neurites longer than 4 soma diameters present in parallel cultures treated with BDNF at a final concentration of 100 pg/ml 24 h after plating or culture media replacement was considered 100% motor neuron survival. FeTCPP was resuspended in complete Neurobasal medium at a 5 mM concentration. Dilutions were performed of the stock solution to add 20 μl per dish.
Rat motor neurons survive many days in culture when brain-derived neurotrophic factor (BDNF) is added to the culture media. Because motor neurons are the cells that preferentially die in ALS, primary cultures of motor neurons represent the best non-animal model of ALS. Withdrawal of BDNF results in apoptotic death of >70% of motor neurons within 24 h. Cell death was correlated with expression of the neuronal form of nitric oxide synthase (nNOS) and the production of peroxynitrite, as evidenced by protein tyrosine nitration. When FeTCPP is added to the culture media in place of BDNF and motor neuron survival is assessed at 24 h, some protection is seen at concentrations as low as 0.01 μM (FIG. 10A). […] Additionally, a comparison of the effect of FETCPP and its tetra-methyl ester derivative, TMeO-FeTCPP, on motor neuron survival at 72 hr.

A short description of series [2]: Solubility and passage of membranes (statement). In kind it is physicochemical.
The nature of series [3]: Oxidation of metalloporphyrins by peroxynitrite, stopped-flow spectroscopy. In kind it is biochemical. Conditions: 37° C., 0.1 M potassium phosphate pH 7.4, pseudo-first order, ± standard error. On the procedure: Peroxynitrite (in 10 mM NaOH) was rapidly mixed with the indicated MPs in 0.1 M potassium phosphate, pH 7.4 at 37° C. using a stopped-flow apparatus as described in Methods. […] A final concentration of 40 μM peroxynitrite was added to 8 μM of each of the MPs MnTBAP, MnPPIX, and FePPIX. […] INSET: Apparent rate constants for oxidation of 8 μM MnTBAP are plotted as a function of peroxynitrite concentration to illustrate how the rate constants listed in Table III were determined.
Rates of metal loporphyrin oxidation by peroxynitrite were determined using a Bio Sequential SX-18MV Applied Photophysics stopped-flow spectrofluorometer. Solutions of metalloporphyrins in 0.1 M potassium phosphate buffer, pH 7.4 were placed in one syringe and solutions of peroxynitrite in 10 mM NaOH were placed in a second syringe, both of which were submerged in a water bath at 37° C. Changes in metalloporphyrin absorbance as a function of time were recorded following triggering of syringe firing and solution mixing (instrument dead time=2 msec); a total of 1000 data points were collected over intervals ranging from 50 msec to 3 sec. […] Because the absorbance changes associated with loss of +3 forms were greater, rates of metalloporphyrin oxidation were determined by monitoring the disappearance of Mn(III)TMPyP at 462 nm, Mn(III)TBAP at 468 nm, Mn(III)PPIX at 466 nm, and Fe(III)PPIX at 464 nm. Absorbance changes as a function of time were fitted to the equation describing a first order process. The concentration of peroxynitrite was varied from five-fold to forty-fold greater than the fixed metalloporphyrin concentration in order to obtained pseudo first-order conditions (see Table III). Each concentration was injected 10 times and data were averaged automatically prior to fitting.
Rate constants for stoichiometric metalloporphyrin oxidation by peroxynitrite at 37° C. were determined under pseudo-first order reaction conditions by varying the amount of peroxynitrite added to a fixed concentration of metalloporphyrin (Table III).
In Table III, the rate of peroxynitrite-mediated oxidation of metalloporphyrins at 37° C. was determined. Apparent rate constants were determined by stopped-flow spectroscopy and plotted versus the peroxynitrite concentration (as shown for MnTBAP in FIG. 4 inset) to determine the bimolecular rate constant in M^−1s^−1±standard error. FePPIX was monitored at 387 nm, MnPPIX at 464 nm, and MnTBAP at 470 nm.

The conditions of series [4]: reference (8); cited from earlier work.

Regarding `O=C(O)c1ccc(-c2c3nc(c(-c4ccc(C(=O)O)cc4)c4ccc([n-]4)c(-c4ccc(C(=O)O)cc4)c4nc(c(-c5ccc(C(=O)O)cc5)c5ccc2[n-]5)C=C4)C=C3)cc1.[Fe+2]` [FeTCPP, Iron (III) meso 5,10,15,20-tetrakis-(4-carboxy-phenyl) porphyrin], the “survival of cultured motor neurons deprived of growth factors” value in series [1] was “prolong survival of cultured motor neurons”. Also, in series [1] (0.1 μM and 1.0 μM), the “long-term motor neuron survival compared with BDNF” value was “as effective as BDNF”. Further, the maximal cell survival in series [1] (0.1 μM, 24 h, in place of BDNF, 100% = BDNF 100 pg/ml) came out at 90%. Besides, the cell survival in series [1] (100 μM, 24 h, in place of BDNF) came to 90%. In addition, the “dose-response for survival of motor neurons at 72 h” value in series [1] (72 h) is “virtually identical to the 24 h survival results”. In addition, the “lowest concentration at which some protection is seen” value in series [1] (added in place of BDNF, survival at 24 h) turned out to be 0.01 µM. In addition, in series [1] (lower dose (0.1 μM), long-term culture), the “cell survival at day 16” value is given as 90%. For the same compound, in series [1] (relatively high concentrations, 100 μM), the “toxicity to motor neurons” value is reported as “not toxic”. Also, in series [2], the “passage of cell membranes and the blood-brain-barrier” value was “readily cross cell membranes and the blood-brain-barrier”; the water solubility result is given as “very water soluble”.

Regarding `C[n+]1ccc(-c2c3nc(c(-c4cc[n+](C)cc4)c4ccc([n-]4)c(-c4cc[n+](C)cc4)c4nc(c(-c5cc[n+](C)cc5)c5ccc2[n-]5)C=C4)C=C3)cc1.[Cl-].[Cl-].[Cl-].[Cl-].[Cl-].[Mn+3]` [MnTMPyP, Manganese (III) meso-tetra-(N-methyl-4-pyridyl)-porphine chloride], in series [3], the “Rate Constants for Oxidation of MPs by Peroxynitrite” value was determined as 3.6e+06 M⁻¹ s⁻¹. The “effect of HOCl on the MP” value (50 μM HOCl) is on record as “appeared to destroy the metal-pyrrole center”. Further, where the note is “0.5 mM H2O2, 20 min”, the “oxidation by H2O2” value is given as “did not appear to oxidize”. Besides, in series [4], the “Rate constant for oxidation by peroxynitrite reported previously” value was 1.8e+06 M⁻¹ s⁻¹.

These data come from patent US6372727B1, “Metalloporphyrin treatment of neurologic disease” (UAB Research Foundation, priority 1999, dated 2002).
